Data: US20250230193A1, “CYCLIC COMPOUND HAVING SELECTIVE KRAS INHIBITORY EFFECT ON HRAS AND NRAS” (CHUGAI SEIYAKU KABUSHIKI KAISHA, priority 2022, published 2025)
Where a SMILES comes first, the peptide text is derived from it. Bridges are numbered along the chain shown (N, C = ends). [ ]: non-standard residue; d: D form. hPhe(3-Cl-4-CF3) = N[C@@H](CCc1ccc(C(F)(F)F)c(Cl)c1)C(=O)O; NPrPhe(4-CF3) = CCCN[C@@H](Cc1ccc(C(F)(F)F)cc1)C(=O)O; NMeGly(cPent) = CN[C@H](C(=O)O)C1CCCC1; Pro(4,4-F2) = O=C(O)[C@@H]1CC(F)(F)CN1; NMeD = CN[C@@H](CC(=O)O)C(=O)O; NMeL = CN[C@@H](CC(C)C)C(=O)O; Ac5c = NC1(C(=O)O)CCCC1; Sar = CNCC(=O)O

How the values were obtained:
[1] = molecular target: GDP-bound NRAS wild-type protein (Homo sapiens, UniProt P01111); assay: Binding to NRAS by surface plasmon resonance (SPR), Single Cycle Kinetics; conditions: for NRAS/KRAS (ratio of KD value with respect to NRAS to KD value with respect to KRAS) / NRAS/KRAS (ratio of KD value for NRAS to KD value for KRAS): GDP-bound NRAS wild-type vs GDP-bound KRAS wild-type
GDP-bound NRAS wild-type protein, sequence (P01111 whole entry): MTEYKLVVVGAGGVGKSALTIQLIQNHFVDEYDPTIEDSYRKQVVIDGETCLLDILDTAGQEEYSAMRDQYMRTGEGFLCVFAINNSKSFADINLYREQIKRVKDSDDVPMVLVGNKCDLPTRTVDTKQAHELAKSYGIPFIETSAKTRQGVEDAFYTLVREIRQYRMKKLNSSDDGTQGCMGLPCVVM

[2] = molecular target: GDP-bound HRAS wild-type protein (Homo sapiens, UniProt P01112); assay: Binding to HRAS by surface plasmon resonance (SPR), Single Cycle Kinetics; conditions: for HRAS/KRAS (ratio of KD value with respect to HRAS to KD value with respect to KRAS) / HRAS/KRAS (ratio of KD value for HRAS to KD value for KRAS): GDP-bound HRAS wild-type vs GDP-bound KRAS wild-type
GDP-bound HRAS wild-type protein, sequence (P01112 whole entry): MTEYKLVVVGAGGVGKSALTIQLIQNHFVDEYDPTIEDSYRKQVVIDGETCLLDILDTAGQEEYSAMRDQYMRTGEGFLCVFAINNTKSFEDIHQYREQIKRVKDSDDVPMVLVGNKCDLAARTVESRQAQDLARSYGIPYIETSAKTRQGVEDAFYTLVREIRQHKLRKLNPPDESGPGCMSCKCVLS

CCCN1CC(=O)N(C)[C@H]2C/C=C\CCN(C2=O)[C@@H](Cc2ccc(C(F)(F)F)cc2)C(=O)N(C)CC(=O)N[C@@H](CCc2cc(F)c(C(F)(F)F)c(F)c2)C(=O)N2C[C@H](OCC)C[C@H]2C(=O)NC2(CCC2)C(=O)N(C)[C@@H](C2CCCC2)C(=O)N(C)[C@H](C(=O)N(C)C)CC(=O)N(C)[C@@H](CC)C(=O)N[C@@H]([C@@H](C)CC)C1=O [PP1053]
NRAS/KRAS (ratio of KD value with respect to NRAS to KD value with respect to KRAS) ([1]; SPR): A (a compound having 10 or more and less than 20 is denoted as A)
HRAS/KRAS (ratio of KD value with respect to HRAS to KD value with respect to KRAS) ([2]; SPR): A (a compound having 10 or more and less than 20 is denoted as A)

CCO[C@H]1CCN2C(=O)[C@H](CCc3cc(F)c(C(F)(F)F)c(F)c3)NC(=O)CN(C)C(=O)[C@H](Cc3ccc(C(F)(F)F)cc3)N3CCCC[C@@H](C3=O)N(C)C(=O)CN(C)C(=O)[C@H]([C@@H](C)CC)NC(=O)[C@H](CC(C)C)N(C)C(=O)C[C@@H](C(=O)N3CCOCC3)N(C)C(=O)[C@H](C3CCCC3)N(C)C(=O)C3(CCC3)NC(=O)[C@H]12 [PP1076]
NRAS/KRAS (ratio of KD value with respect to NRAS to KD value with respect to KRAS) ([1]; SPR): B (a compound having 3 or more and less than 10 is denoted as B)
HRAS/KRAS (ratio of KD value with respect to HRAS to KD value with respect to KRAS) ([2]; SPR): B (a compound having 3 or more and less than 10 is denoted as B)

CCO[C@@H]1C[C@H]2C(=O)N(C)C3(CCCC3)C(=O)N(C)[C@@H](C3CCCC3)C(=O)N(C)[C@H](C(=O)N(C)C)CC(=O)N(C)[C@@H](C3CC3)C(=O)N[C@@H]([C@@H](C)CC)C(=O)N(C)CC(=O)N(C)[C@H]3C/C=C\CCN(C3=O)[C@@H](Cc3ccc(C)cc3)C(=O)N(C)CC(=O)N[C@@H](CCc3cc(F)c(C(F)(F)F)c(F)c3)C(=O)N2C1 [PP1808]
NRAS/KRAS (ratio of KD value for NRAS to KD value for KRAS) ([1]; SPR): A (a compound having 10 or more and less than 20 is denoted as A)
HRAS/KRAS (ratio of KD value for HRAS to KD value for KRAS) ([2]; SPR): B (a compound having 3 or more and less than 10 is denoted as B)

CCO[C@@H]1C[C@H]2C(=O)NC3(CC(F)(F)C3)C(=O)N(C)[C@@H](C3CCCC3)C(=O)N3CCC[C@@H]3CC(=O)N(C)[C@@H](CC3CC3)C(=O)N[C@@H]([C@@H](C)CC)C(=O)N(C)CC(=O)N(C)[C@H]3C/C=C\CCN(C3=O)[C@@H](Cc3ccc(C(F)(F)F)cc3)C(=O)N(C)CC(=O)N[C@@H](CCc3cc(F)c(C(F)(F)F)c(F)c3)C(=O)N2C1 [PP1615]
NRAS/KRAS (ratio of KD value for NRAS to KD value for KRAS) ([1]; SPR): B (a compound having 3 or more and less than 10 is denoted as B)
HRAS/KRAS (ratio of KD value for HRAS to KD value for KRAS) ([2]; SPR): B (a compound having 3 or more and less than 10 is denoted as B)

CCO[C@@H]1C[C@H]2C(=O)NC3(CCC3)C(=O)N(C)[C@@H](C3CCCC3)C(=O)N(C)[C@H](C(=O)N(C)CC)CC(=O)N(C)[C@@H](C3CCC3)C(=O)N[C@@H]([C@@H](C)CC)C(=O)N(C)CC(=O)N(C)[C@H]3C/C=C\CCN(C3=O)[C@@H](Cc3ccc(C(F)(F)F)cc3)C(=O)N(C)CC(=O)N[C@@H](CCc3ccc(C(F)(F)F)c(OC)c3)C(=O)N2C1 [PP2022]
NRAS/KRAS (ratio of KD value for NRAS to KD value for KRAS) ([1]; SPR): A (a compound having 10 or more and less than 20 is denoted as A)
HRAS/KRAS (ratio of KD value for HRAS to KD value for KRAS) ([2]; SPR): A (a compound having 10 or more and less than 20 is denoted as A)

CC[C@H](C)[C@@H]1NC(=O)[C@H](COC)N(C)C(=O)C[C@@H](C(=O)N2CCCCC2)N(C)C(=O)[C@H](C2CCCC2)N(C)C(=O)C2(CC(C)(C)C2)NC(=O)[C@@H]2C[C@@H](OC(C)C)CN2C(=O)[C@H](CCc2cc(F)c(C(F)(F)F)c(F)c2)NC(=O)CN(C)C(=O)[C@H](Cc2ccc(C)cc2)N2CC/C=C\C[C@@H](C2=O)N(C)C(=O)CN(C)C1=O [PP2669]
NRAS/KRAS (ratio of KD value with respect to GDP-bound NRAS wild-type protein to KD value with respect to KRAS) ([1]; class symbols): A (a compound having 10 or more and less than 20 is denoted as A)
HRAS/KRAS (ratio of KD value with respect to GDP-bound HRAS wild-type protein to KD value with respect to KRAS) ([2]; class symbols): A (a compound having 10 or more and less than 20 is denoted as A)

CCCN1C(=O)CN(C)C(=O)CN(C)C(=O)[C@H]([C@@H](C)CC)NC(=O)[C@H](CC(C)C)N(C)C(=O)C[C@@H](C(=O)N(C)C)N(C)C(=O)[C@H](C2CCCC2)N(C)C(=O)C2(CCCC2)NC(=O)[C@@H]2CC(F)(F)CN2C(=O)[C@H](CCc2ccc(C(F)(F)F)c(Cl)c2)NC(=O)CN(C)C(=O)[C@@H]1Cc1ccc(C(F)(F)F)cc1 [PP0413] ([NMeL]I[Sar][Sar][NPrPhe(4-CF3)][Sar][hPhe(3-Cl-4-CF3)][Pro(4,4-F2)][Ac5c][NMeGly(cPent)][NMeD]-NMe2; lactam N-11)
NRAS/KRAS (ratio of KD value with respect to GDP-bound NRAS wild-type protein to KD value with respect to KRAS) ([1]; SPR): C (A compound having a KD ratio of 0.1 or more and less than 3 is denoted as C)
HRAS/KRAS (ratio of KD value with respect to GDP-bound HRAS wild-type protein to KD value with respect to KRAS) ([2]; SPR): C (A compound having a KD ratio of 0.1 or more and less than 3 is denoted as C)
